Laboratory results published in paper PMC8205603, “Simultaneous Quantification of Pioglitazone and Omarigliptin in Rat Plasma by UHPLC-MS/MS and Its Application to Pharmacokinetic Study after Coadministration of the Two Drugs” (Journal of Analytical Methods in Chemistry, 2021).
Where a name gives a salt, the structure may show the parent alone. Read-outs that look alike come from different tables or passages of the source.

Assays:
[1] = Stability of QC samples in rat plasma under different storage conditions; type: physicochemical; details: n = 5
Experimental: Different concentrations of working solutions were diluted 20 times with blank rat plasma to prepare corresponding calibration samples. Final concentrations of calibration samples were 5, 25, 50, 100, 250, 500, 1000, and 2000 ng/mL for pioglitazone and 10, 50, 100, 200, 500, 1000, 2000, and 4000 ng/mL for omarigliptin. Quality control (QC) samples (5, 15, 400, 1500 ng/mL for pioglitazone and 10, 30, 800, 3000 ng/mL for omarigliptin) were prepared as the same way. All plasma samples were stored at −20°C until analysis.
QC samples with low, medium, and high concentrations were analyzed under different conditions, such as kept at room temperature for 6 h, frozen and thawed for three cycles, and frozen at −20°C for 7 days. The postextraction samples were stored in autosampler at 10°C for 24 hours and then reinjected to evaluate the autosampler stability. The measured concentrations were calculated according to the following standard curve. RE (%) and RSD (%) should be within ±15%.

[2] = Pharmacokinetics study in rats after single or combined intragastric administration; type: in vivo, Sprague-Dawley rats; details: plasma, male SD rats
Experimental: Fifteen male Sprague-Dawley rats (6-8 weeks old, 190-210 g) were purchased from Jinan Pengyue Laboratory Animal Technology Co., Ltd. (Jinan, China). The animal certification number was 3707262011004044 and the production license number was SCXK (Lu) 20190003. Before the formal experiment, all rats were adaptively fed for one week at a temperature of 24 ± 2°C and a humidity of 55 ± 5% and then were randomly divided into three groups. In order to guarantee animal welfare, Animal Experiments Guidelines of Yantai Institute of Materia Medica (Yantai, China) was enforced. Pioglitazone and omarigliptin were suspended into 0.5% carboxymethyl cellulose sodium salt (CMC-Na) for intragastric administration. The dosage for rats was calculated based on the clinical dose. […] About 200 μL whole blood was collected into the heparinized tube at 0 min (pre-dose), 15 min, 30 min, 1 […], and 48 h and centrifugated immediately to collect plasma. All plasma samples were frozen at -20°C until analysis. Samples were processed and analyzed by the validated method. Data were acquired and analyzed by Xcalibur 4.1 software (Thermo Fisher Scientific, Massachusetts, USA). Pharmacokinetic parameters were calculated based on noncompartmental model using Phoenix WinNonlin 7.0 (Pharsight, Mountain View, CA). All data were shown as mean ± SD.

[3] = Auto-sampler stability (10°C for 24 h), postextraction samples, nominal 15 ng/mL pioglitazone
[4] = Auto-sampler stability (10°C for 24 h), postextraction samples, nominal 400 ng/mL pioglitazone
[5] = Auto-sampler stability (10°C for 24 h), postextraction samples, nominal 1500 ng/mL pioglitazone
[6] = Freeze (−20°C for 7 days), rat plasma, nominal 15 ng/mL pioglitazone
[7] = Freeze (−20°C for 7 days), rat plasma, nominal 400 ng/mL pioglitazone
[8] = Room temperature for 6 h, rat plasma, nominal 15 ng/mL pioglitazone
[9] = Room temperature for 6 h, rat plasma, nominal 400 ng/mL pioglitazone
[10] = Room temperature for 6 h, rat plasma, nominal 1500 ng/mL pioglitazone
[11] = Three freeze-thaw cycles, rat plasma, nominal 15 ng/mL pioglitazone
[12] = Three freeze-thaw cycles, rat plasma, nominal 400 ng/mL pioglitazone
[13] = Three freeze-thaw cycles, rat plasma, nominal 1500 ng/mL pioglitazone
[14] = male, Sprague-Dawley, rat, po, 2.6 mg/kg, pioglitazone 2.6 mg/kg in combination with omarigliptin 2.6 mg/kg, intragastric, n = 5
[15] = male, Sprague-Dawley, rat, po, 2.6 mg/kg, pioglitazone 2.6 mg/kg intragastric, single administration, n = 5
[16] = Auto-sampler stability (10°C for 24 h), postextraction samples, nominal 30 ng/mL omarigliptin
[17] = Auto-sampler stability (10°C for 24 h), postextraction samples, nominal 800 ng/mL omarigliptin
[18] = Auto-sampler stability (10°C for 24 h), postextraction samples, nominal 3000 ng/mL omarigliptin
[19] = Freeze (−20°C for 7 days), rat plasma, nominal 30 ng/mL omarigliptin
[20] = Freeze (−20°C for 7 days), rat plasma, nominal 800 ng/mL omarigliptin
[21] = Freeze (−20°C for 7 days), rat plasma, nominal 3000 ng/mL omarigliptin
[22] = Room temperature for 6 h, rat plasma, nominal 30 ng/mL omarigliptin
[23] = Room temperature for 6 h, rat plasma, nominal 800 ng/mL omarigliptin
[24] = Room temperature for 6 h, rat plasma, nominal 3000 ng/mL omarigliptin
[25] = Three freeze-thaw cycles, rat plasma, nominal 30 ng/mL omarigliptin
[26] = Three freeze-thaw cycles, rat plasma, nominal 800 ng/mL omarigliptin
[27] = Three freeze-thaw cycles, rat plasma, nominal 3000 ng/mL omarigliptin
[28] = male, Sprague-Dawley, rat, po, 2.6 mg/kg, omarigliptin 2.6 mg/kg in combination with pioglitazone 2.6 mg/kg, intragastric, n = 5
[29] = male, Sprague-Dawley, rat, po, 2.6 mg/kg, omarigliptin 2.6 mg/kg intragastric, single administration, n = 5

SMILES: CCc1ccc(CCOc2ccc(CC3SC(=O)NC3=O)cc2)nc1 (stereo not drawn) [Pioglitazone, Pioglitazone hydrochloride]
- Accuracy (RE %) [1, 3]: 3.95%
- Measured concentrations [1, 3]: 15.59 ± 1.05 ng/mL
- Accuracy (RE %) [1, 4]: −9.17%
- Measured concentrations [1, 4]: 363.31 ± 1.73 ng/mL
- Accuracy (RE %) [1, 5]: −5.24%
- Measured concentrations [1, 5]: 1421.47 ± 7.30 ng/mL
- Accuracy (RE %) [1, 6]: −8.77%
- Measured concentrations [1, 6]: 13.68 ± 0.10 ng/mL
- Accuracy (RE %) [1, 7]: 0.24%
- Measured concentrations [1, 7]: 400.95 ± 1.64 ng/mL
- Measured concentrations ([1]; Freeze (−20°C for 7 days), rat plasma, nominal 1500 ng/mL pioglitazone): 1328.31 ± 5.99 ng/mL
- Accuracy (RE %) [1, 8]: −4.62%
- Measured concentrations [1, 8]: 14.31 ± 0.34 ng/mL
- Accuracy (RE %) [1, 9]: −9.56%
- Measured concentrations [1, 9]: 361.75 ± 1.91 ng/mL
- Accuracy (RE %) [1, 10]: −5.41%
- Measured concentrations [1, 10]: 1418.82 ± 5.26 ng/mL
- Accuracy (RE %) [1, 11]: −8.12%
- Measured concentrations [1, 11]: 13.78 ± 0.11 ng/mL
- Accuracy (RE %) [1, 12]: 0.52%
- Measured concentrations [1, 12]: 402.08 ± 1.11 ng/mL
- Accuracy (RE %) [1, 13]: −11.10%
- Measured concentrations [1, 13]: 1333.57 ± 7.61 ng/mL
- AUC(0-inf) [2, 14]: 19000 ± 2600 ng·h/mL
- AUC(0-t) [2, 14]: 19000 ± 2580 ng·h/mL
- Cmax [2, 14]: 2460 ± 754 ng/mL
- half-life [2, 14]: 2.1 ± 0.2 h
- AUC(0-inf) [2, 15]: 17000 ± 2130 ng·h/mL
- AUC(0-t) [2, 15]: 16900 ± 2210 ng·h/mL
- Cmax [2, 15]: 2550 ± 475 ng/mL
- half-life [2, 15]: 2.8 ± 1 h
- Tmax ([2]; male, Sprague-Dawley, rat, po, 2.6 mg/kg, pioglitazone 2.6 mg/kg intragastric, single administration, n = 5, read-out: t max): 1.8 ± 0.4 h
- Tmax ([2]; pioglitazone 2.6 mg/kg in combination with omarigliptin 2.6 mg/kg, intragastric, n = 5): 2.0 ± 0 h

SMILES: CS(=O)(=O)n1cc2c(n1)CN([C@H]1CO[C@H](c3cc(F)ccc3F)[C@@H](N)C1)C2 [Omarigliptin]
- Accuracy (RE %) [1, 16]: 6.70%
- Measured concentrations [1, 16]: 32.01 ± 2.13 ng/mL
- Accuracy (RE %) [1, 17]: −4.69%
- Measured concentrations [1, 17]: 762.47 ± 4.84 ng/mL
- Accuracy (RE %) [1, 18]: −0.09%
- Measured concentrations [1, 18]: 2997.38 ± 9.39 ng/mL
- Accuracy (RE %) [1, 19]: −4.79%
- Measured concentrations [1, 19]: 28.56 ± 0.11 ng/mL
- Accuracy (RE %) [1, 20]: 0.28%
- Measured concentrations [1, 20]: 802.26 ± 4.01 ng/mL
- Accuracy (RE %) [1, 21]: −10.36%
- Measured concentrations [1, 21]: 2689.12 ± 45.57 ng/mL
- Accuracy (RE %) [1, 22]: 0.05%
- Measured concentrations [1, 22]: 30.01 ± 0.40 ng/mL
- Accuracy (RE %) [1, 23]: −7.74%
- Measured concentrations [1, 23]: 738.06 ± 4.52 ng/mL
- Accuracy (RE %) [1, 24]: −2.07%
- Measured concentrations [1, 24]: 2937.89 ± 7.68 ng/mL
- Accuracy (RE %) [1, 25]: −5.13%
- Measured concentrations [1, 25]: 28.46 ± 0.25 ng/mL
- Accuracy (RE %) [1, 26]: −0.68%
- Measured concentrations [1, 26]: 794.54 ± 9.37 ng/mL
- Accuracy (RE %) [1, 27]: −10.98%
- Measured concentrations [1, 27]: 2670.56 ± 16.54 ng/mL
- AUC(0-inf) [2, 28]: 31300 ± 3820 ng·h/mL
- AUC(0-t) [2, 28]: 30400 ± 3760 ng·h/mL
- Cmax [2, 28]: 2520 ± 435 ng/mL
- Tmax ([2]; male, Sprague-Dawley, rat, po, 2.6 mg/kg, omarigliptin 2.6 mg/kg in combination with pioglitazone 2.6 mg/kg, intragastric, n = 5, read-out: t max): 1.8 ± 0.4 h
- AUC(0-inf) [2, 29]: 37700 ± 4100 ng·h/mL
- AUC(0-t) [2, 29]: 36600 ± 4060 ng·h/mL
- Cmax [2, 29]: 3000 ± 394 ng/mL
- Tmax ([2]; male, Sprague-Dawley, rat, po, 2.6 mg/kg, omarigliptin 2.6 mg/kg intragastric, single administration, n = 5, read-out: t max): 1.5 ± 0.7 h
- t 1/2 ([2]; omarigliptin 2.6 mg/kg intragastric, single administration, n = 5): 10.9 ± 0.5 h
